{"source": "patent US20180344881A1", "about": "“FORMULATIONS FOR 2-HETEROARYL SUBSTITUTED BENZOFURANS” (Navidea Biopharmaceuticals, Inc., priority 2015, published 2018)", "key": {"[1]": {"experiment": "Filter type and excipient compatibility screen, retention of tracer on filter (FIG. 1)", "type": "physicochemical", "details": "in PEG400 at levels of the excipient exceeding 10%; Sartorius Minisart 16596 HY 0.2 μm (FIG. 1)", "experimental": "In examples of experiments, tests were performed on prospective formulations with different filter types to screen for compatibility of the filter material. Both cellulose and polyethersulfone membranes retained unacceptable quantities of the drug substance, with the lowest retention values obtained using polyvinylidene difluoride (PVDF) and polytetrafluoroethylene (PTFE) derived membranes.\nIn this case, a solution of [^18F]NAV4694 in PEG400 appears to have low retention at levels of the excipient exceeding 10%.\nIn the ensuing experiments, each of the excipients were formulated at multiple concentration levels (within acceptable ranges) then treated with small quantities of [^18F]NAV4694 and finally filtered through the preferred filter units. The percent retention of drug substance was then directly calculated through measurement of the actual quantity of radioactivity retained on the filter and compared to that remaining in the filtrate."}, "[2]": {"experiment": "[^18F]NAV4694 solution for injection: stability (radiochemical purity over time)", "type": "physicochemical", "experimental": "[^18F]NAV4694 solution for injection was tested over a range of radioactivity concentration values to determine the capacity and potential expiry at given concentrations."}, "[3]": {"details": "radioactivity concentration below about 75 mCi/mL"}, "[4]": {"details": "very high activity levels (>100 mCi/mL)"}}, "data": [{"smiles": "CNc1ccc(-c2cc3cc(O)ccc3o2)c([18F])n1", "note": "[[^18F]NAV4694, 2-[2-(^18F)fluoro-6-(methylamino)-3-pyridinyl)-5-benzofuranol]", "values": [{"measurement": "retention of the tracer on the filter", "setting": "[1]", "result": "low retention"}, {"measurement": "initial radiochemical purity", "setting": "[2]; [3]", "result": "high initial radiochemical purity"}, {"measurement": "time over which high radiochemical purity is retained", "setting": "[2]; [3]", "result": "retained over at least ten hours"}, {"measurement": "decomposition", "setting": "[2]; [4]", "result": "accelerated decomposition"}, {"measurement": "initial radiochemical purity", "setting": "[2]; [4]", "result": "lower initial radiochemical purity"}]}]}
